Assay results taken from article PMC9316000, “Preclinical Drug Pharmacokinetic, Tissue Distribution and Excretion Profiles of the Novel Limonin Derivate HY-071085 as an Anti-Inflammatory and Analgesic Candidate in Rats and Beagle Dogs” (Pharmaceuticals, 2022).
Read-outs that look alike come from different tables or passages of the source.

What was measured:
[1] = Pharmacokinetics after single-dose intravenous administration in rats; format: in vivo, Sprague Dawley rats; details: S-IV 3.25 mg/kg; for AUC(0-inf) / AUC / MRT / half-life: rat, plasma; for AUC: read-out: AUC0-tn
Procedure: The PK parameters after the intravenous administration of 3.25 mg/kg HY-071085 (before use, prepared with 5% DMSO + 95% normal saline mixture) are listed in Table 1.
In vivo PK profiling in the rats: Sprague Dawley rats (approximately 177–221 g in weight) were purchased from Shanghai Xipur-Bikai Experimental Animal Co., Ltd. (Shanghai, China). Before the experiment, several rats were randomly divided into several groups, half males and half females in each group, fasting but free to drink water for 12 h. The dosage of the rats was dependent on the drug pharmacology: the HY-071085 active pharmaceutical ingredients were administered with a dosage volume of 0.25 mL/100 g body weight. The whole-blood samples were centrifuged at 8000 rpm for 5 min, and the plasma samples were separated and stored at –80 °C until the analysis.
(§1) According to the obtained plasma concentration time data, the pharmacokinetic parameters were calculated using Phoenix WinNonlin 8.1 software. The pharmacokinetic parameters—i.e., the area under the curve (AUC), mean residence time (MRT), clearance rate (Cl/F) and steady-state apparent distribution volume (Vss/F)—were calculated by the method of moments, which was estimated according to the following formulae: AUCtn=∑Ci+Ci−1ti−ti−1/2 AUC∞=AUCtn+Cm/λ AUMCtn=∑tiCi+ti−1Ci−1ti−ti−1/2 AUMC∞=AUMCtn+Ctntn/λ+1/λ^2 MRT=AUMC∞/AUC∞ Cl/F=Dose/AUC Vss/F=Cl∗MRT where Ctn is the plasma concentration of tn at the last point after administration, and the elimination rate constant was obtained by ln(concentration) time linear regression.
(§2) Due to the drug having significant individual differences in rats, it could not be uniformly fitted with a PK atrioventricular model; as such, the pharmacokinetic parameters analyzed in this study were calculated using a non-atrioventricular model. The pharmacokinetic parameters are defined as follows: Cmax is the maximum blood concentration after administration and absorption, Tmax is the time required to reach Cmax, t1/2 is the time required to eliminate half of the plasma drug concentration after the drug distribution in the body reaches equilibrium, Cl/F is the apparent clearance rate, AUC0-tn is the area under the blood concentration time curve within the dosing interval, AUC0-∞ is the area under the plasma concentration time curve from 0 to infinity, MRT is the average time that all drug molecules stay in the body, and Vss/F is the steady-state apparent distribution volume, which is the product of the clearance rate and average residence time.

[2] = Pharmacokinetics after single-dose intragastric administration in beagle dogs; format: in vivo; details: both sexes, dog, plasma; for bioavailability: 1.25 mg/kg intragastric vs intravenous, from AUC0-∞, read-out: absolute oral bioavailability; for AUC: read-out: AUC0-tn; for Vd/F: read-out: Vss/F
Procedure: Male and female beagle dogs were administered low (1.25 mg/kg), medium (2.5 mg/kg) and high (5 mg/kg) doses of HY-071085 by gastric gavage, and blood samples were collected from the forelimb vein at various time points before and 8 h after administration in order to analyze the concentration of HY-071085 in the plasma. The profiles of the mean plasma concentration of HY-071085 versus time in dogs are presented in Figure 7, and the PK parameters are listed in Table 2. There was no gender difference in the pharmacokinetics in dogs (Figure 8). The AUCtn ratio for the three doses was 1:3.8:11.9, and the AUC0-∞ ratio between doses was 1:3.6:11.3, which was greater than the dose increase ratio (1:2:4), as shown in Figures S3 and S4.
(§3) In vivo PK profiling in dogs: Beagle dogs (approximately 8–10 kg in weight) were purchased from Jiangsu Yadong Experimental Animal Research Institute Co. Ltd (Nanjing, China). Before the experiment, several beagle dogs were randomly divided into several groups, half males and half females in each group. Four cycles of single-dose administration experiments were carried out, and the cleaning period was 3–5 days. Repeated-dose administration was carried out after the end of four cycles of single-dose administrations and cleaning periods. According to the dosage for the rats, the dosage for the beagle dogs was converted via the body surface area method. The HY-071085 active pharmaceutical ingredients were administered with a dosage volume of 2 mL/kg body weight. The whole-blood samples were centrifuged at 8000 rpm for 5 min, and the plasma samples were separated and stored at –80 °C until the analysis.
as §1, §2

[3] = Pharmacokinetics after single-dose intravenous administration in beagle dogs; format: in vivo; details: S-IV 1.25 mg/kg
Procedure: After the intravenous administration of 1.25 mg/kg HY-071085, there was also no gender difference for the plasma concentration time data in Figure 9.
as §3, §1, §2

[4] = Pharmacokinetics after repeated-dose intragastric administration in beagle dogs; format: in vivo; details: R-IG 2.5 mg/kg
Procedure: AUC0-∞ was 195.41 ± 90.03 and 728.57 ± 270.64 h∙ng/mL, respectively (Table 2, Figure 10). […] On the fifth and seventh days before administration, the plasma concentration (valley concentration) was mostly below the lower limit of quantification (1 ng/mL).
as §3, §1, §2

[5] = set-up: method as in earlier work; details: Temp 25℃; cited from earlier work
[6] = set-up: method as in earlier work; details: cited from earlier work
[7] = set-up: method as in earlier work; details: Temp 25℃; cited from earlier work; remark: listed apart in the source
[8] = po, single-dose intragastric 2.5 mg/kg
[9] = both sexes, dog, plasma, po, 7 d

In the case of `CC1(C)OC2CC(=O)OCC23C1C/C(=N\OCCN1CCOCC1)C1(C)C3CC[C@@]2(C)[C@H](c3ccoc3)OC(=O)C3OC312` (stereo partly drawn) [HY-071085, (12S,12aS,E)-12-(furan-3-yl)-6,6,8a,12a-tetramethyl-8-((2-morpholinoethoxy)imino)dodecahydro-1H,3H-oxireno [2,3-d]pyrano [4’,3’:3,3a]isobenzofuro [5,4-f]isochromene-3,10(9aH)-dione], the AUC(0-inf) ([1]; Sprague Dawley, female rats) is reported as 684 ± 39.2 ng·h/mL, the AUC ([1]; Sprague Dawley, female rats) is reported as 682 ± 225 ng·h/mL and the AUC(0-inf) ([1]; Sprague Dawley, male rats) is reported as 740 ± 146 ng·h/mL. The MRT ([1]; Sprague Dawley, male rats) was 17.4 ± 2.4 min, the AUC ([1]; Sprague Dawley, male rats) was 739 ± 146 ng·h/mL and the MRT ([1]; Sprague-Dawley, female rats) was 20.4 ± 3 min. It also gave a half-life ([1]; Sprague-Dawley, female rats) of 20.4 ± 3 min, a half-life ([1]; Sprague-Dawley, male rats) of 24 ± 6 min and a Cl/F ([1]; female rats) of 79.3 ± 4.5 mL/min/kg. It also gave a Vss/F ([1]; female rats) of 1.63 ± 0.17 L/kg, a Cl/F ([1]; male rats) of 75 ± 11.8 mL/min/kg and a Vss/F ([1]; male rats) of 1.31 ± 0.18 L/kg. The bioavailability ([2]; oral) was 13.1%, the bioavailability ([2]; po) was about 13.1% and the AUC(0-inf) ([2]; po, S-IG 1.25 mg/kg) was 54.1 ± 25.4 ng·h/mL. It also gave a CL/F ([2]; po, S-IG 1.25 mg/kg) of 517 mL/min/kg, a Cmax ([2]; po, S-IG 1.25 mg/kg) of 37.9 ± 20.1 ng/mL and an MRT ([2]; po, S-IG 1.25 mg/kg) of 80.4 ± 31.8 min. It also gave a Tmax ([2]; po, S-IG 1.25 mg/kg) of 29.4 ± 25.8 min, a half-life ([2]; po, S-IG 1.25 mg/kg) of 52.8 ± 26.4 min and an AUC ([2]; po, S-IG 1.25 mg/kg) of 51.1 ± 24.9 ng·h/mL. It also gave a Vd/F ([2]; po, S-IG 1.25 mg/kg) of 35.3 ± 19.1 L/kg, an AUC(0-inf) ([2]; po, S-IG 5 mg/kg) of 610 ± 235 ng·h/mL and a CL/F ([2]; po, S-IG 5 mg/kg) of 156 mL/min/kg. It also gave a Cmax ([2]; po, S-IG 5 mg/kg) of 436 ± 206 ng/mL, an MRT ([2]; po, S-IG 5 mg/kg) of 87.6 ± 29.4 min and a Tmax ([2]; po, S-IG 5 mg/kg) of 41.4 ± 33 min. The half-life ([2]; po, S-IG 5 mg/kg) was 49.8 ± 7.8 min, the AUC ([2]; po, S-IG 5 mg/kg) was 606 ± 236 ng·h/mL and the Vd/F ([2]; po, S-IG 5 mg/kg) was 11.5 ± 6.03 L/kg. The AUC(0-inf) [2, 8] was 195 ± 90 ng·h/mL, the half-life [2, 8] was 49.8 ± 7.2 min and the Cl/F [3] was 51.2 ± 24.2 mL/min/kg. The Vss/F [3] was 2.07 ± 1.17 L/kg, the AUC(0-inf) ([3]; both sexes, dog, plasma) was 594 ± 538 ng·h/mL and the Cmax ([3]; both sexes, dog, plasma) was 1200 ± 1510 ng/mL. It also gave an MRT ([3]; both sexes, dog, plasma) of 37.2 ± 12 min, a Tmax ([3]; both sexes, dog, plasma) of 5.4 ± 1.8 min and a half-life ([3]; both sexes, dog, plasma) of 42 ± 5.4 min. For the same compound, the AUC ([3]; both sexes, dog, plasma, read-out: AUC0-tn) was 591 ± 539 ng·h/mL, the “plasma concentration (valley concentration) before administration” value ([4]; fifth and seventh days, mostly below the lower limit of quantification) was under 1 ng/mL and the AUC(0-inf) [4, 9] was 729 ± 271 ng·h/mL. It also gave a CL/F at 7 d [4, 9] of 32.3 mL/min/kg, a Cmax at 7 d [4, 9] of 445 ± 135 ng/mL and an MRT at 7 d [4, 9] of 94.8 ± 8.4 min. For the same compound, the Tmax at 7 d [4, 9] was 16.2 ± 9 min, the half-life at 7 d [4, 9] was 64.8 ± 7.8 min and the AUC ([4]; both sexes, dog, plasma, po, 7 d, read-out: AUC0-tn) was 723 ± 270 ng·h/mL. The Vd/F at 7 d ([4]; both sexes, dog, plasma, po, 7 d, read-out: Vss/F) was 3.04 ± 1.19 L/kg, the Intrinsic solubility [5] was 4500 µg/mL and the pKa [6] was 6.11. For the same compound, the logP [7] was 2.8023.
